Results: the supplement of paper PMC11616607

How the values were obtained:
Experiment in all cases: drug sensitivity score (DSS) from 5-point dose-response viability curve (DSS (area-under-curve based score)); higher = more sensitive (stronger growth inhibition or killing); extreme values may be limits of the assay
Conditions in all cases: exposure time: 72 h; concentration range: 5 concentrations over 10,000-fold range
CAOV3 = test system: CAOV3
Method in brief: (§1)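 For the drug sensitivity score, obtained per cell line and drug in Breeze software, larger values mean greater sensitivity. No response corresponds to a score of zero. Ovarian cancer and normal ovarian cells were seeded at 1,500 per well into 384-well plates already holding acoustically dispensed drugs (Echo 550, DMSO or water, five concentrations over a 10,000-fold range) and incubated 3 days at 37°C, 5% CO2. CellTiter-Glo luminescence on a PHERAstar FS gave the viability readout.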

COV318 = test system: COV318
Method in brief: as §1

COV362 = test system: COV362
Method in brief: as §1

HOSE1C = test system: HOSE1C
Method in brief: as §1

HOSE2C = test system: HOSE2C
Method in brief: as §1

JHOS2 = test system: JHOS2
Method in brief: as §1

Kuramochi = test system: Kuramochi
Method in brief: as §1

OV90 = test system: OV90
Method in brief: as §1

OVCAR4 = test system: OVCAR4
Method in brief: as §1

OVCAR5 = test system: OVCAR5
Method in brief: as §1

OVCAR8 = test system: OVCAR8
Method in brief: as §1

Ovsaho = test system: Ovsaho
Method in brief: as §1

Row | Compound | drug sensitivity score (CAOV3) | drug sensitivity score (COV318) | drug sensitivity score (COV362) | drug sensitivity score (HOSE1C) | drug sensitivity score (HOSE2C) | drug sensitivity score (JHOS2) | drug sensitivity score (Kuramochi) | drug sensitivity score (OV90) | drug sensitivity score (OVCAR4) | drug sensitivity score (OVCAR5) | drug sensitivity score (OVCAR8) | drug sensitivity score (Ovsaho)
1 | Cc1nc(NC(=O)N2CCC[C@H]2C(N)=O)sc1-c1ccnc(C(C)(C)C(F)(F)F)c1 [Alpelisib] | 3.7 | 0.5 | 0 | 2.2 | 3.2 | 0.6 | 2.4 | 1 | 0.9 | 4.2 | 0.3 | 0.4
2 | O=C(Nc1cc(Oc2cc(F)c(NC(=O)C3(C(=O)Nc4ccc(F)cc4)CC3)cc2F)ccn1)C1CC1 [Altiratinib] | 2.7 | 1.7 | 3 | 4.2 | 3.4 | 4.3 | 4.3 | 0 | 3.3 | 6.6 | 6 | 3.6
3 | CN1CC[C@H](c2c(O)cc(O)c3c(=O)cc(-c4ccccc4Cl)oc23)[C@H](O)C1 [Alvocidib] | 14.9 | 11.5 | 12.1 | 18.9 | 11.9 | 14 | 16 | 14.7 | 13.3 | 16.7 | 17.8 | 15.9
4 | CCN(CC)CCNC(=O)c1c(C)[nH]c(/C=C2\C(=O)Nc3ccc(-c4csc(-c5ccccc5)n4)cc32)c1C [Amcasertib] | 0 | 8.8 | 0.5 | 8.8 | 5.2 | 0 | 0 | 0 | 0.8 | 1.3 | 0.6 | 0
5 | CCC1(c2ccc(N)cc2)CCC(=O)NC1=O (centres undefined) [Aminoglutethimide] | 0.2 | 0 | 0 | 0.2 | 0 | 0 | 0 | 0 | 0 | 0 | 0 | 0
6 | COc1cc(NS(C)(=O)=O)ccc1Nc1c2ccccc2nc2ccccc12 [Amsacrine] | 13.7 | 0.6 | 1 | 13.7 | 16.7 | 3.8 | 0 | 7.3 | 0.2 | 6 | 10 | 5.5
7 | S=C(NCc1ccc2c(c1)OCO2)N1CCN(c2ncnc3c2oc2ccccc23)CC1 [Amuvatinib] | 2.1 | 0.1 | 0 | 0 | 0 | 0 | 0.2 | 3.2 | 0.9 | 1.8 | 7.9 | 0.1
